Results on 17 compounds are retold here after patent US10259807B2, “1-(piperazin-1-yl)-2-([1,2,4]triazol-1-yl)-ethanone derivatives” (Idorsia Pharmaceuticals Ltd., priority 2013, dated 2019).

SMILES strings stand for the structures.

One data set deals with T1, human CXCR3A (Homo sapiens, UniProt P49682).
T1 construct: expressed in transfected cells; host or cells: CHO-K1
T1 sequence (P49682 1-368): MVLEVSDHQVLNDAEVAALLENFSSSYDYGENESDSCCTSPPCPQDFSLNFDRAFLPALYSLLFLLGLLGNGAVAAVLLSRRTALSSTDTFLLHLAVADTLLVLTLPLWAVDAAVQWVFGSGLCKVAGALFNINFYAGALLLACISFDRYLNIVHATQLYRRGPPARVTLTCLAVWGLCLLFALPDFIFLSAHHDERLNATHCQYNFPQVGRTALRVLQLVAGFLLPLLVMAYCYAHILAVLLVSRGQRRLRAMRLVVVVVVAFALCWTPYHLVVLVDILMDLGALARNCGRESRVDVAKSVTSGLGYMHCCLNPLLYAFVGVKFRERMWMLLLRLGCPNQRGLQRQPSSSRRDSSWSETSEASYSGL
The experiment in a line: FLIPR assay (CXCL10-induced calcium signal in CHO-K1 cells). In kind it is cell-based. To be noted: CHO-K1 cells expressing human CXCR3A coupled to Galpha(16); CXCL10 agonist 20 nM; mean values. The method, then: A) FLIPR assay: The bioactivity of compounds is tested in a fluorometric imaging plate reader (FLIPR: Molecular Devices) using engineered CHO-K1 cells expressing the human CXCR3A (GenBank: AY242128) coupled to a G protein (Galpha(16)). Cells are plated the day prior to bioassay in F12 medium supplemented with 10% FBS and G418 and hygromycin antibiotics to maintain recombinant selection. […] Cells are washed free of excess dye and 60 microliter of wash buffer is added. Stock solutions of test compounds are made up at a concentration of 10 mM in DMSO, and serially diluted in dilution buffer to concentrations required for inhibition dose response curves. After a 10 minute incubation period at 37° C., 10 microliters of each compound dilution are transferred from a compound plate to the plate containing the recombinant cells in the FLIPR instrument according to the manufacturer's instructions. Following basal readings, 10 microliter CXCL10 agonist at a concentration of 20 nM (from Peprotech) is added, again using the FLIPR instrument. Changes in fluorescence are monitored before and after addition of the test compounds. Emission peak values above base level after CXCL10 addition are exported after base line subtraction. The program XLfit is used to fit the data to a single site dose response curve and to calculate IC50 values. The calculated IC50 values may fluctuate depending on the daily assay performance. Fluctuations of this kind are known to those skilled in the art.

A further data set deals with T2, hERG K channel (Homo sapiens, UniProt Q12809).
T2 construct: host or cells: CHO
The experiment in a line: hERG Q-Patch assay. In kind it is cell-based. The following applies: CHO cells expressing hERG, K+ tail current 3 min after application, mean of two or three experiments. The method, then: B) hERG Q-Patch assay: Compounds are evaluated for block of the hERG K channel using CHO cells stably expressing the hERG gene (accession number U04270, bSys, Witterswil. Switzerland) and the Patch robotic platform (Sophion, Ballerup, Denmark) in single-cell mode at room temperature. […] When the cells are ˜80% confluent (every 2-3 days), they are either split for further culture or used for electrophysiology. […] Cells are kept in suspension medium at 32-35° C. in the QPatch robot until use, at which time aliquots are transferred to the extracellular solution (in mM: NaCl 150; KCl 4; CaCl2 1.2; MgCl2 1; HEPES 10; pH 7.4 with NaOH) containing 0.3% v/v DMSO and applied to the test plates. K^+ currents are measured with the patch-voltage-clamp technique in the whole-cell configuration with the internal solution (in […]: KCl, 140; NaCl, 10; MgCl2, 1; HEPES, 10; EGTA, 5; pH=7.2 with KOH). […] K^+tail currents are produced from a holding voltage of −80 mV by a 500-ms depolarization to +20 mV followed by a 500-ms repolarization to −40 mV; tail current amplitudes are measured at the end of the repolarization to −40 mV. The pulse pattern is repeated every 10 sec during the experiment, baseline K^+ current is measured after 3 min in extracellular solution, test-solution containing compound is then applied, and K^+ current in presence of compound is measured 3 minutes after application to the cells.
For orientation: The hERG channel carries a current that helps repolarise heart muscle cells.

T2 sequence (Q12809 whole entry): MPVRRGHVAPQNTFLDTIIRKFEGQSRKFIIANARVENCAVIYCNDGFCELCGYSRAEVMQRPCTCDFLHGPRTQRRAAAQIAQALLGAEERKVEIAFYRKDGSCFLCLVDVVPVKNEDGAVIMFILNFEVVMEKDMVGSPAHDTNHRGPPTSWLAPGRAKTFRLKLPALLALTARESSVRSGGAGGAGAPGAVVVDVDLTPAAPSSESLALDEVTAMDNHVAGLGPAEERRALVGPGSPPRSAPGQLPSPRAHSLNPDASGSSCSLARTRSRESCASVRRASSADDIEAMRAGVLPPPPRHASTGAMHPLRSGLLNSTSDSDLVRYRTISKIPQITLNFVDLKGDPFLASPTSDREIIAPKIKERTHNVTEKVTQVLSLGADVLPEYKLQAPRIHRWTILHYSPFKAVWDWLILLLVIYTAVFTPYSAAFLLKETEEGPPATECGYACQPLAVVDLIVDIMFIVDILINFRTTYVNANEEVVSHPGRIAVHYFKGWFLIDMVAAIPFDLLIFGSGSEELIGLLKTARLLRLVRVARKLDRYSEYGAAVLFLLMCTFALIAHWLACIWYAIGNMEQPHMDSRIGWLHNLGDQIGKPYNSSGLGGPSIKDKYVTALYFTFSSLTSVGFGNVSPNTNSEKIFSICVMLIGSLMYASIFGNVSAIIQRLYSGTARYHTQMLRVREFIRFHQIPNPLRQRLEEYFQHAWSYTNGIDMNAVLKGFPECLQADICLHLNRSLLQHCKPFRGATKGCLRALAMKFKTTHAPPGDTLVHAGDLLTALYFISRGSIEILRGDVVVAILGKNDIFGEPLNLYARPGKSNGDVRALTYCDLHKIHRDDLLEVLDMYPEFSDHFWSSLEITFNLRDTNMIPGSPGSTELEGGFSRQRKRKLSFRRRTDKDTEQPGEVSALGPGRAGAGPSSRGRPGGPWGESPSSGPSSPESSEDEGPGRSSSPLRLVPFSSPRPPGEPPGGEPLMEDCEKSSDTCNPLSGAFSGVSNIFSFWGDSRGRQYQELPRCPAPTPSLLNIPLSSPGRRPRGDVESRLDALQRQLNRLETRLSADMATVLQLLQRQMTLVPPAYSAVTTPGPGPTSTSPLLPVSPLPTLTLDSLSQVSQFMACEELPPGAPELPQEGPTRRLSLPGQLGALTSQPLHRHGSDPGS

With `Cc1nc(C)n(CC(=O)N2CCN(c3sc(C(F)(F)F)nc3-c3cnc(C(C)(F)F)nc3)C[C@H]2C)n1` [Example 52, 1-((R)-4-{4-[2-(1,1-Difluoro-ethyl)-pyrimidin-5-yl]-2-trifluoromethyl-thiazol-5-yl}-2-methyl-piperazin-1-yl)-2-(3,5-dimethyl-[1,2,4]triazol-1-yl)-ethanone], the IC50 – broadly, the concentration at which inhibition is half-maximal – on human CXCR3A was 4.5 nM. Further, the “% block” value on hERG K channel (concentration 300 nM) is on record as 2%; on hERG K channel (concentration 3000 nM), 6%.
Consider `Cc1nc(C)n(CC(=O)N2CCN(c3sc(C(F)(F)F)nc3-c3ccc(C#N)cc3)C[C@H]2C)n1` [Example 5, 4-(5-{(R)-4-[2-(3,5-Dimethyl-[1,2,4]triazol-1-yl)-acetyl]-3-methyl-piperazin-1-yl}-2-trifluoromethyl-thiazol-4-yl)-benzonitrile], for which, at human CXCR3A, the 50% inhibitory concentration (IC50) turned out to be 24 nM.
As to `CCc1nc(C)nn1CC(=O)N1CCN(c2sc(C(F)(F)F)nc2-c2cnc(C(F)(F)F)nc2)C[C@H]1C` (single isomer, unassigned) [Example 47], on human CXCR3A, the IC50 is 3.5 nM. Moreover, the “% block” value at hERG K channel (concentration 300 nM) is on record as 5%; on hERG K channel (concentration 3000 nM), 18%.
`CCOc1ncc(-c2nc(C(F)(F)F)sc2N2CCN(C(=O)Cn3nc(C)nc3C)[C@@H](C)C2)cn1` [Example 34, 2-(3,5-Dimethyl-[1,2,4]triazol-1-yl)-1-{(S)-4-[4-(2-ethoxy-pyrimidin-5-yl)-2-trifluoromethyl-thiazol-5-yl]-2-methyl-piperazin-1-yl}-ethanone]: the IC50 on human CXCR3A was 5.7 nM. The “% block” value at hERG K channel (concentration 300 nM) is 3%; on hERG K channel (concentration 3000 nM), 4%.
The like results for `COc1ccc(-c2nc(C(F)(F)F)sc2N2CCN(C(=O)Cn3nc(C)nc3C)[C@H](C)C2)c(F)c1` [Example 11, 2-(3,5-Dimethyl-[1,2,4]triazol-1-yl)-1-{(R)-4-[4-(2-fluoro-4-methoxy-phenyl)-2-trifluoromethyl-thiazol-5-yl]-2-methyl-piperazin-1-yl}-ethanone] were, in that order, 45 nM, 10% and 19%.
In the case of `Cc1ncc(-c2nc(C(F)(F)F)sc2N2CCN(C(=O)Cn3nc(C)nc3C)[C@H](C)C2)cn1` [Example 23, 2-(3,5-Dimethyl-[1,2,4]triazol-1-yl)-1-{(R)-2-methyl-4-[4-(2-methyl-pyrimidin-5-yl)-2-trifluoromethyl-thiazol-5-yl]-piperazin-1-yl}-ethanone], the figures for the “% block” value at hERG K channel (concentration 300 nM) and at hERG K channel (concentration 3000 nM) were −1% and −2%, respectively.
For the compound `COc1ccc(-c2nc(C(F)(F)F)sc2N2CCN(C(=O)Cn3nc(C)nc3C)[C@H](C)C2)cn1` [Example 16, 2-(3,5-Dimethyl-[1,2,4]triazol-1-yl)-1-{(R)-4-[4-(6-methoxy-pyridin-3-yl)-2-trifluoromethyl-thiazol-5-yl]-2-methyl-piperazin-1-yl}-ethanone], the “% block” value at hERG K channel (concentration 300 nM) was 4%; at hERG K channel (concentration 3000 nM), 14%.
For `CCOc1ncc(-c2nc(C(F)(F)F)sc2N2CCN(C(=O)Cn3nc(CN(C)C)nc3C)[C@H](C)C2)cn1` [Example 17, 2-(3-Dimethylaminomethyl-5-methyl-[1,2,4]triazol-1-yl)-1-{(R)-4-[4-(2-ethoxy-pyrimidin-5-yl)-2-trifluoromethyl-thiazol-5-yl]-2-methyl-piperazin-1-yl}-ethanone], on human CXCR3A, the IC50 was 20 nM. Moreover, the figures for the “% block” value on hERG K channel (concentration 300 nM) and on hERG K channel (concentration 3000 nM) were 13% and 26%, respectively.
For `CCOc1ncc(-c2nc(C(F)(F)F)sc2N2CCN(C(=O)Cn3nc(C)nc3CC)[C@H](C)C2)cn1` (single isomer, unassigned) [Example 19] the same measures were 8.5 nM, 4% and 12%.
For `Cc1nc(C)n(CC(=O)N2CCN(c3sc(C(F)(F)F)nc3-c3cnc(OCC(F)(F)F)nc3)C[C@H]2C)n1` [Example 28, 2-(3,5-Dimethyl-[1,2,4]triazol-1-yl)-1-((R)-2-methyl-4-{4-[2-(2,2,2-trifluoro-ethoxy)-pyrimidin-5-yl]-2-trifluoromethyl-thiazol-5-yl}-piperazin-1-yl)-ethanone] the same measures were 2.8 nM, 0% and 6%.
As for `Cc1nc(C)n(CC(=O)N2CCN(c3sc(C(F)(F)F)nc3-c3ccc4c(c3)CCCO4)C[C@H]2C)n1` [Example 21, 1-[(R)-4-(4-Chroman-6-yl-2-trifluoromethyl-thiazol-5-yl)-2-methyl-piperazin-1-yl]-2-(3,5-dimethyl-[1,2,4]triazol-1-yl)-ethanone], on human CXCR3A, the IC50 worked out at 4.7 nM. Besides, the “% block” value on hERG K channel (concentration 300 nM) was 1%; on hERG K channel (concentration 3000 nM) it was 12%.
Consider `CCc1ncc(-c2nc(C(F)(F)F)sc2N2CCN(C(=O)Cn3nc(C)nc3C)[C@H](C)C2)cn1` [Example 43, 2-(3,5-Dimethyl-[1,2,4]triazol-1-yl)-1-{(R)-4-[4-(2-ethyl-pyrimidin-5-yl)-2-trifluoromethyl-thiazol-5-yl]-2-methyl-piperazin-1-yl}-ethanone], for which the “% block” value at hERG K channel (concentration 300 nM) is 4%; at hERG K channel (concentration 3000 nM), 8%.
With `CCOc1ccc(-c2nc(C(F)(F)F)sc2N2CCN(C(=O)Cn3nc(C)nc3C)[C@H](C)C2)cc1` [Example 31, 2-(3,5-Dimethyl-[1,2,4]triazol-1-yl)-1-{(R)-4-[4-(4-ethoxy-phenyl)-2-trifluoromethyl-thiazol-5-yl]-2-methyl-piperazin-1-yl}-ethanone], the IC50 on human CXCR3A was found to be 10 nM. The “% block” value on hERG K channel (concentration 300 nM) was found to be 6%; at hERG K channel (concentration 3000 nM), 14%.
In the case of `COc1ccc(-c2nc(C(F)(F)F)sc2N2CCN(C(=O)Cn3nc(C)nc3C)[C@H](C)C2)cc1C` [Example 12, 2-(3,5-Dimethyl-[1,2,4]triazol-1-yl)-1-{(R)-4-[4-(4-methoxy-3-methyl-phenyl)-2-trifluoromethyl-thiazol-5-yl]-2-methyl-piperazin-1-yl}-ethanone], at human CXCR3A, the IC50 turned out to be 25 nM. The “% block” value on hERG K channel (concentration 300 nM) was determined as 6%; at hERG K channel (concentration 3000 nM) it was 27%.
For the compound `Cc1nc(C)n(CC(=O)N2CCN(c3sc(C(F)(F)F)nc3-c3cnc(N4CCN(C)CC4)nc3)C[C@H]2C)n1` [Example 37, 2-(3,5-Dimethyl-[1,2,4]triazol-1-yl)-1-((R)-2-methyl-4-{4-[2-(4-methyl-piperazin-1-yl)-pyrimidin-5-yl]-2-trifluoromethyl-thiazol-5-yl}-piperazin-1-yl)-ethanone], the IC50 on human CXCR3A worked out at 4.8 nM. Also, the “% block” value was 2% on hERG K channel (concentration 300 nM) and 4% at hERG K channel (concentration 3000 nM).
With `[2H]C([2H])(C(=O)N1CCN(c2sc(C(F)(F)F)nc2-c2cnc(OCC)nc2)C[C@H]1C)n1nc(C)nc1C` [Example 41, 2-(3,5-Dimethyl-[1,2,4]triazol-1-yl)-1-{(R)-4-[4-(2-ethoxy-pyrimidin-5-yl)-2-trifluoromethyl-thiazol-5-yl]-2-methyl-piperazin-1-yl}-2,2-dideuterium-ethanone], on human CXCR3A, the IC50 was determined as 5.6 nM.
As for `COc1ncc(-c2nc(C(F)(F)F)sc2N2CCN(C(=O)Cn3nc(C)nc3C)[C@H](C)C2)cn1` [Example 32, 2-(3,5-Dimethyl-[1,2,4]triazol-1-yl)-1-{(R)-4-[4-(2-methoxy-pyrimidin-5-yl)-2-trifluoromethyl-thiazol-5-yl]-2-methyl-piperazin-1-yl}-ethanone], the “% block” value is −6% at hERG K channel (concentration 300 nM) and −5% at hERG K channel (concentration 3000 nM).
